Measurements as given in patent US20250213735A1, “NEUROPEPTIDE Y1 RECEPTOR (NPY1R) TARGETED THERAPEUTICS AND USES THEREOF” (Radionetics Oncology, Inc., priority 2023, published 2025).

What follows are compounds tested against hNPY1R (Homo sapiens (Human), UniProt P25929) (assay: NPY1R binding assay (SK-N-MC membrane, [125I]-Peptide YY competition)). Conditions: crude SK-N-MC membranes endogenously expressing NPY1R; [125I]-Peptide YY (human) 0.05 nM; 120 min at room temperature; read-out: hNPY1R binding Ki.
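Further: bound radioligand separated by filtration over GF/C filter plates and counted, Ki obtained by non-linear regression.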
Method: Crude membrane fractions are prepared from SK-N-MC cells endogenously expressing the NPY1R receptor. The cells are grown to 85-100% confluence on standard tissue culture dishes in Eagle's Minimum Essential Medium supplemented with 10% dialyzed FBS. To prepare membranes, cells are scraped and collected in 1× Dulbecco's phosphate buffered saline and then pelleted at 1000 RPM's. The cell pellet is reconstituted in membrane preparation buffer (20 mM HEPES, 6 mM MgCl2 and 1 mM EGTA, protease inhibitor tablets, pH 7.4) and placed in a cell disruption vessel at 1000 PSI for 30 minutes on ice. The pressurized contents are then released and spun down at 1000 RPMs and the supernatant is collected and further centrifuged at 15,000 RPMs to pellet the membranes. The membrane pellet is resuspended in membrane preparation buffer, snap frozen and stored at −80° C. for later use.
Assay contents are then filtered through unifilter GF/C microplates and washed with 9×400 μl of cold wash buffer (25 mM HEPES, 5 mM MgCl2, 1 mM CaCl2), 500 mM NaCl, 0.1% Tween-20, pH 7.4). Assay plates are read using a Top Count NXT and Ki values for compounds are determined using a GraphPad Prism 6 non-linear regression analysis.

hNPY1R, sequence (P25929 whole entry): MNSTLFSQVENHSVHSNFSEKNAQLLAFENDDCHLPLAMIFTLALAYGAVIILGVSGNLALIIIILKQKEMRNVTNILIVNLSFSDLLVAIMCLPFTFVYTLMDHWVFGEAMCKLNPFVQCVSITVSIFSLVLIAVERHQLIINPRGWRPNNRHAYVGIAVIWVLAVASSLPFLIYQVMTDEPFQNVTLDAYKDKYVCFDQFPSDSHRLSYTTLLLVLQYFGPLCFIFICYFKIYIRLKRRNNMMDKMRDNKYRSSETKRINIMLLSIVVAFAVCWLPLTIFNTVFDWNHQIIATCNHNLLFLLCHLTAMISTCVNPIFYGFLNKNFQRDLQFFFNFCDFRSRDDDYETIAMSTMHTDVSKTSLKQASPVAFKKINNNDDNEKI

Row | Compound | Ki
1 | CCC(=O)NCCNC(=O)/N=C(/N)NCCC[C@@H](NC(=O)[C@H](c1ccc(OCCCNC(=O)CN2CCN(CC(=O)O)CCN(CC(=O)O)CCN(CC(=O)O)CC2)cc1)N1Cc2ccccc2C1)C(=O)NCc1ccc(O)cc1 [compound 59, 2,2′,2″-(10-(2-((3-(4-((1S,4R,Z)-9-amino-4-((4-hydroxybenzyl)carbamoyl)-1-(isoindolin-2-yl)-2,11,16-trioxo-3,8,10,12,15-pentaazaoctadec-9-en-1-yl)phenoxy)propyl)amino)-2-oxoethyl)-1,4,7,10-tetraazacyclododecane-1,4,7-triyl)triacetic acid] | < 10 nM
2 | CCC(=O)NCCNC(=O)/N=C(/N)NCCC[C@@H](NC(=O)[C@H](c1cccc(NCCCNC(=O)[C@H](N)CCCCNC(=O)CN2CCN(CC(=O)O)CCN(CC(=O)O)CCN(CC(=O)O)CC2)c1)N1Cc2ccccc2C1)C(=O)NCc1ccc(O)cc1 [compound 25, 2,2′,2″-(10-(2-(((R)-5-amino-6-((3-((3-((1S,4R,Z)-9-amino-4-((4-hydroxybenzyl)carbamoyl)-1-(isoindolin-2-yl)-2,11,16-trioxo-3,8,10,12,15-pentaazaoctadec-9-en-1-yl)phenyl)amino)propyl)amino)-6-oxohexyl)amino)-2-oxoethyl)-1,4,7,10-tetraazacyclododecane-1,4,7-triyl)triacetic acid] | < 10 nM
3 | CCC(=O)NCCNC(=O)/N=C(/N)NCCC[C@@H](NC(=O)[C@H](c1ccc(OCCCNC(=O)CCC(=O)NCCNC(=O)CCC(C(=O)O)N2CCN(CC(=O)O)CCN(CC(=O)O)CCN(CC(=O)O)CC2)cc1)N1Cc2ccccc2C1)C(=O)NCc1c(F)cc(O)cc1F (stereo partly drawn) [compound 49, 2,2′,2″-(10-(4-((2-(4-((3-(4-((1S,4R,Z)-9-amino-4-((2,6-difluoro-4-hydroxybenzyl)carbamoyl)-1-(isoindolin-2-yl)-2,11,16-trioxo-3,8,10,12,15-pentaazaoctadec-9-en-1-yl)phenoxy)propyl)amino)-4-oxobutanamido)ethyl)amino)-1-carboxy-4-oxobutyl)-1,4,7,10-tetraazacyclododecane-1,4,7-triyl)triacetic acid] | < 10 nM
4 | CC1(C)C2CN([C@H](C(=O)N[C@H](CCCNC(=N)N)C(=O)NCc3ccc(O)cc3)c3ccccc3)CC21 (stereo partly drawn) [88A, (2R)-2-((2S)-2-(6,6-dimethyl-3-azabicyclo[3.1.0]hexan-3-yl)-2-phenylacetamido)-5-guanidino-N-(4-hydroxybenzyl)pentanamide] | 100 to 1000 nM
5 | CC(C)C1CCN(C(C(=O)N[C@H](CCCNC(=N)N)C(=O)NCc2ccc(O)cc2)c2ccccc2)CC1 (stereo partly drawn) [compound 77, (2R)-5-guanidino-N-(4-hydroxybenzyl)-2-(2-(4-isopropylpiperidin-1-yl)-2-phenylacetamido)pentanamide] | 10 to 100 nM
6 | CCC(=O)NCCNC(=O)/N=C(/N)NCCC[C@@H](NC(=O)[C@H](c1ccc(OCCCNC(=O)[C@H]2CC[C@H](CNC(=O)CN3CCN(CC(=O)O)CCN(CC(=O)O)CCN(CC(=O)O)CC3)CC2)cc1)N1Cc2ccccc2C1)C(=O)NCc1ccc(O)cc1 [compound 18, 2,2′,2″-(10-(2-((((1S,4r)-4-((3-(4-((1S,4R,Z)-9-amino-4-((4-hydroxybenzyl)carbamoyl)-1-(isoindolin-2-yl)-2,11,16-trioxo-3,8,10,12,15-pentaazaoctadec-9-en-1-yl)phenoxy)propyl)carbamoyl)cyclohexyl)methyl)amino)-2-oxoethyl)-1,4,7,10-tetraazacyclododecane-1,4,7-triyl)triacetic acid] | < 10 nM
7 | N=C(N)NCCC[C@@H](NC(=O)C(c1ccccc1)N1CCCCC1)C(=O)NCc1ccc(O)cc1 (stereo partly drawn) [compound 72, (2R)-5-guanidino-N-(4-hydroxybenzyl)-2-(2-phenyl-2-(piperidin-1-yl)acetamido)pentanamide] | 100 to 1000 nM
